Peptide text beside a SMILES is read from it. * marks the point of attachment. Cbz = O=C(OCc1ccccc1)*; CH2F = FC*
B1: recombinant TRAIL (protein)
chain: PRGGRPQKVAAHITGITRRSNSALIPISKDGKTLGQKIESWESSRKGHSFLNHVLFRNGELVIEQEGLYYIYSQTYFRFQEAEDASKMVSKDKVRTKQLVQYIYKYTSYPDPIVLMKSARNSCWSRDAEYGLYSIYQGGLFELKKNDRIFVSVTNEHLMDLDQEASFFGAFLIN

Columns and labels:
[1] = test system: E1B192-200-specific CD8+ T cells; type: cell-based, mouse; conditions: for secondary expansion of purified helpless CD8+ T cells (fold expansion of IFN-γ-producing E1B192-200-specific CD8+ T cells): caspase inhibitors 20 μM, 6 days after in vitro restimulation, CD4-depleted mice, FIGS. 1a, 1b
[2] = test system: GP33-41-specific CD8+ T cells; type: cell-based, mouse; conditions: 6 days

| Molecule | secondary expansion of purified helpless CD8+ T cells (fold expansion of IFN-γ-producing E1B192-200-specific CD8+ T cells) [1] | secondary expansion of helpless LCMV-specific CD8+ T cells [2] | secondary expansion of helpless CD8+ T cells from TRAIL-deficient mice in presence of exogenous TRAIL ([1]; CD4-depleted TRAIL-/- mice, 6 days, FIG. 4b) | secondary expansion of helped CD8+ T cells in presence of exogenous TRAIL ([1]; intact wild type mice, 6 days, FIG. 4a) |
| --- | --- | --- | --- | --- |
| CC(C)C(NC(=O)c1ccc2ccccc2n1)C(=O)NC(CC(=O)O)C(=O)COc1c(F)cccc1F (stereo not drawn) [qVD-OPh, quinoline-Val-Asp-CH2-difluorophenoxy] | restored secondary expansion |  |  |  |
| COC(=O)C[C@H](NC(=O)[C@H](C)NC(=O)[C@@H](NC(=O)OCc1ccccc1)C(C)C)C(=O)CF [zVAD-fmk, benzyloxycarbonyl-Val-Ala-Asp-fluoromethyl ketone] (Cbz-Val-Ala-Asp(OMe)-CH2F) | restored secondary expansion | restored |  |  |
| B1 |  |  | failed to do so | completely inhibited secondary expansion |
